What was measured:
PC12 (TrkA & p75) = assay: 125I-NGF binding displacement in PC12 cells; parameters: species or system rat; settings: for NGF binding displacement, dose-response curve: PC12 cells expressing TrkA and p75
Protocol: The method for acquiring the PC12 data described in Table 1 is described herein in Example 1. Each experiment was done at least once with an n value of 4 for each data point. (n/a=not acquired)
All cells were incubated at 37° C. in 5% CO2. PC12 cells were maintained in RPMI-1640 medium supplemented with 10% fetal bovine serum (FBS). A875 human melanoma cells were maintained in DMEM with 10% FBS. HEK 293 cells were stably transfected with human TrkA plasmid (see below) and maintained in DMEM with 10% FBS and G418 (600 μg/mL) for selection.
NGF binding was evaluated using methods familiar to those who are skilled in the art. Briefly, cells expressing one or both NGF receptors (PC12: TrkA+p75; A875: p75 alone; HEK_TrkA: TrkA alone) were harvested by replacing the medium with calcium-magnesium free balanced salt (Grey's) solution and incubating at 37° C. for 15 min. For NGF binding, cells were resuspended at a concentration of 2×10^6 cells/mL in HEPES-Krebs-Ringer (HKR) buffer (10 mM HEPES; 125 mM NaCl; 4.8 mM KCl; 1.3 mM CaCl2; 1.2 mM MgSO4; 1.2 mM KH2PO4; 1 mg/ml BSA; 1 mg/ml glucose; pH 7.4) and exposed to ^125I-NGF (˜0.1 nM) in the presence or absence of varying concentrations of the compound. Non-specific binding was determined for reference by incubating ^125I-NGF with an excess of non-radioactive NGF in the abence of compound. Following a two-hour incubation period at 4° C., ^125I-NGF bound to the cells was quantified in a gamma radiation counter following separation from unbound NGF by filtration or centrifugation through glycerol (10% in HKR). Inhibition of binding was calculated as a percent of the specific binding (calculated as the differential between ^125I-NGF binding in the absence and presence of an excess of non-radioactive NGF without compound). Dose-response inhibition curves were typically generated with seven concentrations of a given compound, with three replicates for each concentration. For most compounds, multiple dose-response curves were generated.
The IC50 data shown in Table 1 were acquired using the procedure described herein using PC12 cells.

[1] = test system: NGF-induced Erk 1/2 phosphorylation in PC12 cells; assay: NGF-induced Erk 1/2 phosphorylation, Western blot; type: cell-based, rat; settings: NGF 5 ng/mL
Protocol: This assay is useful for establishing that the compounds of the invention are functional NGF antagonists, not receptor agonists (an agonist could conceivably block NGF binding but actually activate the receptor). Erk 1/2 is a kinase activated down stream of TrkA and is a well studied member of the NGF-induced signal transduction cascade.
PC12 cells expressing TrkA and p75 were acutely exposed to 5 ng/mL NGF (15 min; 37° C.; 5% CO2) that was pre-incubated (30 min; room temperature) with or without the compounds. Cells were lysed in Laemmli sample buffer (for SDS-PAGE) or a lysis buffer containing Triton X-100 (for ELISA). Following SDS-PAGE, proteins were electroblotted onto nitrocellulose and immunoprobed for phosphorylated Erk 1 and 2. Blocking and primary antibody incubations of immunoblots were performed in Tris-buffered saline-Tween (10 mM Tris, pH 8.0, 150 mM NaCl, and 0.2% Tween 20) supplemented with 5% (w/v) bovine serum albumin (BSA); secondary antibody incubations were performed in 5% (w/v) dried skim milk powder. Immunoreactive bands were detected by chemiluminescence.

[2] = Writhing Test (acetic acid abdominal contraction test); type: in vivo; settings: mice
Protocol: The acetic acid abdominal contraction test (Martinez et al., Pain 1999; 81: 179) was used to determine the efficacy of different compounds in a model of acute visceral chemical nociception. […] Compound or vehicle was administered (i.p. or s.c.) 15-45 minutes prior to the acetic acid injection. Each episode of writhing is characterized by a lengthwise stretching of the torso with a concomitant arching of the back.
Statistical analysis was performed using Prism™ 4.01 software package (GraphPad, San Diego, Calif., USA). The difference in response levels between treatment groups and control vehicle group was analyzed using an ANOVA followed by Bonferroni's method for post-hoc pair-wise comparisons. A p value <0.05 was considered to be significant
Animals were treated with vehicle (VEH) or Compound 91 (5 mg/kg i.p.; [CMP 1] and 50 mg/kg i.p. [CMP 2])) 10-20 minutes before the intraperitoneal injection of acetic acid, as described in this example.

With O=C(O)c1ccc(Cl)c(N2C(=O)c3ccc4c5c(ccc(c35)C2=O)C(=O)N(c2cc(C(=O)O)ccc2Cl)C4=O)c1 [Compound 18, 3-[7-(1-chloro-4-carboxy-phenyl)-1,3,6,8-tetraoxo-3,6,7,8-tetrahydro-1H-benzo[lmn][3,8]phenanthrolin-2-yl]-4-chloro-benzoic acid] the “NGF binding displacement, dose-response curve” value (PC12 (TrkA & p75)) was “effectively blocks NGF binding” and the “PC12 (TrkA & p75) Single point (% max binding) Mean” value (from here on “PC12 … (% max binding) Mean”) (PC12 (TrkA & p75); compound concentration 50 μM) was “*** (0 > *** > 30)”.
For O=C1c2ccc3c4c(ccc(c24)C(=O)N1c1ccc(S(=O)(=O)O)cc1)C(=O)N(c1ccc(S(=O)(=O)O)cc1)C3=O [Compound 54, 4-(1,3,6,8-Tetraoxo-7-(4-benzenesulfonic acid)-3,6,7,8-tetrahydro-1H-benzo[lmn][3,8]phenanthrolin-2-yl)-benzenesulfonic acid], the “PC12 … (% max binding) Mean” value (PC12 (TrkA & p75); compound concentration 50 μM) was “*** (0 > *** > 30)”.
With O=C(O)c1ccc(Cl)c(N2C(=O)c3ccc4c5c(ccc(c35)C2=O)C(=O)OC4=O)c1 [Compound 58, 4-Chloro-3-(1,3,6,8-tetraoxo-1,3,6,8-tetrahydro-2-oxa-7-aza-pyren-7-yl)-benzoic acid] the “PC12 … (% max binding) Mean” value (PC12 (TrkA & p75); compound concentration 50 μM) was “*** (0 > *** > 30)”.
In the case of O=C(O)CCCN1C(=O)c2ccc3c4c(ccc(c24)C1=O)C(=O)N(c1cc(C(=O)O)ccc1Cl)C3=O [Compound 59, 3-[7-(3-Carboxy-propyl)-1,3,6,8-tetraoxo-3,6,7,8-tetrahydro-1H-benzo[lmn][3,8]phenanthrolin-2-yl]-4-chloro-benzoic acid], the “PC12 … (% max binding) Mean” value (PC12 (TrkA & p75); compound concentration 50 μM) is reported as “*** (0 > *** > 30)”.
In the case of O=C([O-])c1ccc2nc3c4ccc5c6c(ccc(c(=O)n3c2c1)c46)c(=O)n1c2cc(C(=O)[O-])ccc2nc51.[Na+].[Na+] [Compound 91], the “Inhibition of NGF-induced Erk 1/2 phosphorylation” value [1] is reported as “inhibits NGF-induced Erk 1/2 phosphorylation”, the “NGF binding displacement, dose-response curve” value (PC12 (TrkA & p75)) is reported as “effectively blocks NGF binding” and the “Antinociceptive effect in the Writhing Test” value ([2]; 5 and 50 mg/kg i.p., p<0.01 vs vehicle) is reported as “significant antinociceptive effects”. The “Chemically-induced abdominal contractions (number in 30 minutes)” value ([2]; i.p., n=6, vehicle 58±4, dose of the value (5 or 50 mg/kg) not stated) was 16±9.
In the case of O=c1c2ccc3c4c(ccc(c24)c2nc4ccccc4n12)c(=O)n1c2ccccc2nc31.[K+] [Compound 92, 1,3,6-trioxo-1,2,3,6-tetrahydro-benzo[lmn]benzo[4,5]imidazo[2,1-b][3,8]diphenanthroline potassium salt], the “PC12 … (% max binding) Mean” value (PC12 (TrkA & p75); compound concentration 50 μM) is reported as “* (* > 50)”.
In the case of O=C(O)c1cccc(N2C(=O)c3ccc4c(=O)n5c6cc(C(=O)O)ccc6nc5c5ccc(c3c45)C2=O)c1 [Compound 93, 2-(3-Carboxy-phenyl)-1,3,6-trioxo-1,2,3,6-tetrahydro-benzo[lmn]benzo[4,5]imidazo[2,1-b][3,8]phenanthroline-9-carboxylic acid], the “PC12 … (% max binding) Mean” value (PC12 (TrkA & p75); compound concentration 50 μM) is reported as “** (30 > ** > 50)”.
In the case of O=C(O)CCCN1C(=O)c2ccc3c4c(ccc(c24)C1=O)C(=O)OC3=O [Compound 94], the “PC12 … (% max binding) Mean” value (PC12 (TrkA & p75); compound concentration 25 μM) is reported as “*** (0 > *** > 30)”.
With O=C(O)CCCN1C(=O)c2ccc3c(=O)n4c5cc(C(=O)O)ccc5nc4c4ccc(c2c34)C1=O [Compound 95, 2-(3-Carboxy-propyl)-1,3,6-trioxo-1,2,3,6-tetrahydro-benzo[lmn]benzo[4,5]imidazo[2,1-b][3,8]phenanthroline-9-carboxylic acid] the “PC12 … (% max binding) Mean” value (PC12 (TrkA & p75); compound concentration 25 μM) was “* (* > 50)”.
In the case of O=C(O)c1ccc(Cl)c(N2C(=O)c3ccc4c(=O)n5c6ccccc6nc5c5ccc(c3c45)C2=O)c1 [Compound 98, 2-(5-Carboxy-2-chloro-phenyl)-1,3,6-trioxo-1,2,3,6-tetrahydro-benzo[lmn]benzo[4,5]imidazo[2,1-b][3,8]phenanthroline-9], the “PC12 … (% max binding) Mean” value (PC12 (TrkA & p75); compound concentration 25 μM) is reported as “*** (0 > *** > 30)”.
For O=C(O)c1ccc(Cl)c(N2C(=O)c3ccc4c(=O)n5c6cc(Cl)ccc6nc5c5ccc(c3c45)C2=O)c1 [Compound 99, 2-(5-Carboxy-2-chloro-phenyl)-1,3,6-trioxo-1,2,3,6-tetrahydro-9-chloro-benzo[lmn]benzo[4,5]imidazo[2,1-b][3,8]phenanthroline], the “PC12 … (% max binding) Mean” value (PC12 (TrkA & p75); compound concentration 10 μM) was “*** (0 > *** > 30)”.
With O=C(O)c1ccc(Cl)c(N2C(=O)c3ccc4c(=O)n5c6cc([N+](=O)[O-])ccc6nc5c5ccc(c3c45)C2=O)c1 [Compound 100, 2-(5-Carboxy-2-chloro-phenyl)-1,3,6-trioxo-1,2,3,6-tetrahydro-9-nitro-benzo[lmn]benzo[4,5]imidazo[2,1-b][3,8]phenanthroline] the “PC12 … (% max binding) Mean” value (PC12 (TrkA & p75); compound concentration 10 μM) was “*** (0 > *** > 30)”.
With COc1ccc2nc3c4ccc5c6c(ccc(c(=O)n3c2c1)c64)C(=O)N(c1cc(C(=O)O)ccc1Cl)C5=O [Compound 101, 2-(5-Carboxy-2-chloro-phenyl)-1,3,6-trioxo-1,2,3,6-tetrahydro-9-methoxy-benzo[lmn]benzo[4,5]imidazo[2,1-b][3,8]phenanthroline] the “PC12 … (% max binding) Mean” value (PC12 (TrkA & p75); compound concentration 10 μM) was “** (30 > ** > 50)”.
With COC(=O)c1ccc2nc3c4ccc5c6c(ccc(c(=O)n3c2c1)c64)C(=O)N(c1cc(C(=O)O)ccc1Cl)C5=O [Compound 102, Methyl-2-(5-Carboxy-2-chloro-phenyl)-1,3,6-trioxo-1,2,3,6-tetrahydro-benzo[lmn]benzo[4,5]imidazo[2,1-b][3,8]phenanthroline-9-carboxylic acid ester] the “PC12 … (% max binding) Mean” value (PC12 (TrkA & p75); compound concentration 10 μM) was “* (* > 50)”.
